According to ChEMBL document CHEMBL5727275, “Tetrahydronaphthyl urea derivative” (2019):

Molecular target: High affinity nerve growth factor receptor (Homo sapiens, UniProt P04629)
Test: Evaluation of Binding Activity for Human TrkA Protein: Measurement was carried out using TrkA LanthaScreen (registered trademark) Eu Kinase Binding Assay (ThermoFisher SCIENTIFIC). To a 384 well plate (Corning), 2.5 μL of the test compound having various concentrations and diluted with Kinase buffer (ThermoFisher SCIENTIFIC) and 2.5 μL of 15 nM TrkA enzyme (ThermoFisher SCIENTIFIC) were added. Moreover, […] Eu-anti-His Tag antibody (ThermoFisher SCIENTIFIC) and 5 μL of 30 nM Kinase (registered trademark) Tracer 236 (ThermoFisher SCIENTIFIC) were added, followed by reaction at room temperature for 60 minutes. After the reaction, the fluorescence intensity of Europium (Emission wavelength 615 nm) and TR-FRET (Emission wavelength 665 nm) with an excitation wavelength of 340 nm were measured with EnVision 2100 (PerkinElmer) to calculate the fluorescence ratio as the amount of the test compound and the TrkA enzyme bonded. The inhibitory activity (IC50 value) of each test compound was calculated with the fluorescence ratio of the well to which a solvent was added instead of the test compound being 0% and the fluorescence ratio of the well without addition of the TrkA protein being 100%.

Chain of High affinity nerve growth factor receptor (P04629 whole entry): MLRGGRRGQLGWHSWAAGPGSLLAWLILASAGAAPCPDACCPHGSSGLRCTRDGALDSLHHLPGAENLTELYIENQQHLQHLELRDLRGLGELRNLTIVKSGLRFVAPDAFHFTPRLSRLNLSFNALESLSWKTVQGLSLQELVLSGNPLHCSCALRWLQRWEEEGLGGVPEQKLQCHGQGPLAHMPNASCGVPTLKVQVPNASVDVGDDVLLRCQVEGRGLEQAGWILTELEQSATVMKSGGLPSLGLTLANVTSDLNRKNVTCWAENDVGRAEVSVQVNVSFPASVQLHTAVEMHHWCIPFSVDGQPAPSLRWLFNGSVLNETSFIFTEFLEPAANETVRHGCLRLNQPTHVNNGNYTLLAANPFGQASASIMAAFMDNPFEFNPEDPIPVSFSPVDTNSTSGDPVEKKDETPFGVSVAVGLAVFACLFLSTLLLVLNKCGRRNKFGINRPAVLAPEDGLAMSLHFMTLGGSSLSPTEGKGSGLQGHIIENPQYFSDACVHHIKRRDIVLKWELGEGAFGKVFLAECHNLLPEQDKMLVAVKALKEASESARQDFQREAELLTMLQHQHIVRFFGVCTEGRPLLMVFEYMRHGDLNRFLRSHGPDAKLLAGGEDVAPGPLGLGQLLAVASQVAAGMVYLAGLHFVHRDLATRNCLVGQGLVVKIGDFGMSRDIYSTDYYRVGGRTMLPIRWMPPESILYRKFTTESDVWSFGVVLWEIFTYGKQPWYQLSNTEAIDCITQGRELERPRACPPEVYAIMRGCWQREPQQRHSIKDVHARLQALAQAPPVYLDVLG

IC50 | Compound
< 50 nM | Cc1ncc(-c2nc(-c3ccccc3)c(NC(=O)N[C@H]3c4cc(F)ccc4C(C)(C)C[C@H]3O)cc2C)cn1
< 50 nM | Cc1ncc(-c2nc(-c3ccccc3)c(NC(=O)N[C@H]3c4ccc(F)cc4C(C)(C)C[C@H]3O)cc2C)cn1
